Experimental data: ChEMBL document CHEMBL5614394, “Novel pleuromutilin derivatives conjugated with phenyl-sulfide and boron-containing moieties as potent antibacterial agents against antibiotic-resistant bacteria” (Eur J Med Chem, 2024)
Converted amounts (≈) assume the structure as drawn. The source made the active and inactive calls. No cut-off for these calls is given here.

Columns and labels:
Enterococcus faecium [1] = assay: Antibacterial activity against pleuromutilin-resistant Enterococcus faecium 18FJZ1-1 harboring (lsa(E)+) genotype assessed as inhibition of visible growth of bacteria incubated for 24 hrs by CLSI protocol based broth-dilution method; format: functional
Enterococcus faecium [2] = assay: Antibacterial activity against pleuromutilin-resistant Enterococcus faecium 18SC29-2 harboring (lsa(E)-) genotype assessed as inhibition of visible growth of bacteria incubated for 24 hrs by CLSI protocol based broth-dilution method; format: functional
Staphylococcus simulans = assay: Antibacterial activity against pleuromutilin-resistant Staphylococcus simulans isolate 55-1 harboring cfr+ genotype assessed as inhibition of visible growth of bacteria incubated for 24 hrs by CLSI protocol based broth-dilution method; format: functional
Staphylococcus aureus [3] = assay: Antibacterial activity against methicillin-resistant Staphylococcus aureus J1 harboring (lsa(E)+) genotype assessed as inhibition of visible growth of bacteria incubated for 24 hrs by CLSI protocol based broth-dilution method; format: functional
Staphylococcus aureus [4] = assay: Antibacterial activity against Staphylococcus aureus ATCC 25923 assessed as inhibition of visible growth of bacteria incubated for 24 hrs by CLSI protocol based broth-dilution method; format: functional
Staphylococcus aureus [5] = assay: Antibacterial activity against methicillin-resistant Staphylococcus aureus USA 300 assessed as number of colonies with prevalence of spontaneous mutation at 4 times of MIC incubated for 48 hrs by agar dilution assay; format: functional
Staphylococcus aureus [6] = assay: Antibacterial activity against methicillin-resistant Staphylococcus aureus USA 300 assessed as inhibition of bacterial growth at 1 times of MIC measured upto 24 hrs by time-kill kinetics assay; format: functional, organism-based
[7] = Stability in mouse liver microsomes assessed as drug metabolism at 1 uM measured within 1 hrs in presence of NADPH by LC-MS analysis; format: ADME, Microsome; conditions: read-out: Drug metabolism
Staphylococcus aureus [8] = assay: Antibacterial activity against Staphylococcus aureus ATCC 43300 assessed as inhibition of visible growth of bacteria incubated for 24 hrs by CLSI protocol based broth-dilution method; format: functional
[9] = Stability in rat liver microsomes assessed as drug metabolism at 1 uM measured within 1 hrs in presence of NADPH by LC-MS analysis; format: ADME, Microsome; conditions: read-out: Drug metabolism
Staphylococcus aureus [10] = assay: Antibacterial activity against Staphylococcus aureus USA 300 assessed as inhibition of visible growth of bacteria incubated for 24 hrs by CLSI protocol based broth-dilution method; format: functional
[11] = system: Staphylococcus epidermidis; assay: Antibacterial activity against Staphylococcus epidermidis ATCC 12228 assessed as inhibition of visible growth of bacteria incubated for 24 hrs by CLSI protocol based broth-dilution method; format: functional
Staphylococcus aureus [12] = assay: Antibacterial activity against Staphylococcus aureus ATCC 29213 assessed as inhibition of visible growth of bacteria incubated for 24 hrs by CLSI protocol based broth-dilution method; format: functional
Staphylococcus aureus [13] = assay: Antibacterial activity against Staphylococcus aureus ATCC 700699 assessed as inhibition of visible growth of bacteria incubated for 24 hrs by CLSI protocol based broth-dilution method; format: functional
Staphylococcus aureus [14] = assay: Antibacterial activity against methicilin-resistant Staphylococcus aureus isolate 15-2 assessed as inhibition of visible growth of bacteria incubated for 24 hrs by CLSI protocol based broth-dilution method; format: functional
Escherichia coli = assay: Antibacterial activity against Escherichia coli ATCC 25922 assessed as inhibition of visible growth of bacteria incubated for 24 hrs by CLSI protocol based broth-dilution method; format: functional
Staphylococcus aureus [15] = assay: Antibacterial activity against Staphylococcus aureus ATCC 700788 assessed as inhibition of visible growth of bacteria incubated for 24 hrs by CLSI protocol based broth-dilution method; format: functional
Streptococcus pneumoniae [16] = assay: Antibacterial activity against penicillin sensitive Streptococcus pneumoniae isolate 20-1 assessed as inhibition of visible growth of bacteria incubated for 24 hrs by CLSI protocol based broth-dilution method; format: functional
Acinetobacter baumannii = assay: Antibacterial activity against Acinetobacter baumannii ATCC 19606 assessed as inhibition of visible growth of bacteria incubated for 24 hrs by CLSI protocol based broth-dilution method; format: functional
[17] = system: Staphylococcus epidermidis; assay: Antibacterial activity against methicillin-sensitive Staphylococcus epidermidis isolate 20-15 assessed as inhibition of visible growth of bacteria incubated for 24 hrs by CLSI protocol based broth-dilution method; format: functional
Staphylococcus aureus [18] = assay: Bactericidal activity against methicillin-resistant Staphylococcus aureus USA 300 assessed as inhibition of bacterial growth at 8 times of MIC by time kill kinetics assay; format: functional, organism-based; conditions: time <= 24.0 hrs, TDE = time-dependent effect
Streptococcus pneumoniae [19] = assay: Antibacterial activity against penicillin resistant Streptococcus pneumoniae isolate 20-1 assessed as inhibition of visible growth of bacteria incubated for 24 hrs by CLSI protocol based broth-dilution method; format: functional
Staphylococcus aureus [20] = assay: Antibacterial activity against Staphylococcus aureus ATCC 33591 assessed as inhibition of visible growth of bacteria incubated for 24 hrs by CLSI protocol based broth-dilution method; format: functional
Enterococcus faecalis [21] = assay: Antibacterial activity against Enterococcus faecalis HB 24-4 assessed as inhibition of visible growth of bacteria incubated for 24 hrs by CLSI protocol based broth-dilution method; format: functional
Enterococcus faecalis [22] = assay: Antibacterial activity against Enterococcus faecalis ATCC 29212 assessed as inhibition of visible growth of bacteria incubated for 24 hrs by CLSI protocol based broth-dilution method; format: functional
Staphylococcus aureus [23] = assay: Antibacterial activity against methicillin-resistant Staphylococcus aureus USA 300 assessed as number of colonies with prevalence of spontaneous mutation at 8 times of MIC incubated for 48 hrs by agar dilution assay; format: functional
[24] = Stability in human liver microsomes assessed as drug metabolism at 1 uM measured within 1 hrs in presence of NADPH by LC-MS analysis; format: ADME, Microsome; conditions: read-out: Drug metabolism

## C=C[C@]1(C)C[C@@H](OC(=O)CSC(C)(C)CNC(=O)[C@H](N)C(C)C)[C@]2(C)[C@H](C)CC[C@]3(CCC(=O)[C@H]32)[C@@H](C)[C@@H]1O [VALNEMULIN]
Enterococcus faecium [1]
  MIC: 8 µg/mL (≈ 14.2 µM)
Enterococcus faecium [2]
  MIC: ≤ 0.06 µg/mL
Staphylococcus simulans
  MIC: 8 µg/mL (≈ 14.2 µM)
Staphylococcus aureus [3]
  MIC: > 32 µg/mL

## C=C[C@]1(C)C[C@@H](OC(=O)CS[C@@H]2C[C@H]3CC[C@@H](C2)N3C)[C@]2(C)[C@H](C)CC[C@]3(CCC(=O)[C@H]32)[C@@H](C)[C@@H]1O [RETAPAMULIN]
Enterococcus faecium [1]
  MIC: 32 µg/mL (≈ 61.8 µM)
Enterococcus faecium [2]
  MIC: 0.125 µg/mL (≈ 0.241 µM)
Staphylococcus simulans
  MIC: 32 µg/mL (≈ 61.8 µM)
Staphylococcus aureus [3]
  MIC: > 32 µg/mL

## C=C[C@]1(C)C[C@@H](OC(=O)CSCCN(CC)CC)[C@]2(C)[C@H](C)CC[C@]3(CCC(=O)[C@H]32)[C@@H](C)[C@@H]1O [TIAMULIN]
Enterococcus faecium [1]
  MIC: > 32 µg/mL
Enterococcus faecium [2]
  MIC: 2 µg/mL (≈ 4.05 µM)
Staphylococcus simulans
  MIC: > 32 µg/mL
Staphylococcus aureus [3]
  MIC: > 32 µg/mL

## C=C[C@]1(C)C[C@@H](OC(=O)CSc2cccc(NC(=O)c3ccc(B(O)O)cc3)c2)[C@]2(C)[C@H](C)CC[C@]3(CCC(=O)[C@H]32)[C@@H](C)[C@@H]1O
Staphylococcus aureus [4]
  MIC: ≤ 0.03 µg/mL
Staphylococcus aureus [5]
  Activity: <4.7 10^-11No_unit
Staphylococcus aureus [6]
  Activity: Active
[7]
  metabolised at 1 h, 1 µM: 87.5%
Staphylococcus aureus [8]
  MIC: ≤ 0.03 µg/mL
[9]
  metabolised at 1 h, 1 µM: 84.6%
Staphylococcus aureus [10]
  MIC: ≤ 0.03 µg/mL
[11]
  MIC: 0.016 µg/mL (≈ 0.0253 µM)
Staphylococcus aureus [12]
  MIC: ≤ 0.016 µg/mL
Staphylococcus aureus [13]
  MIC: ≤ 0.03 µg/mL
Enterococcus faecium [1]
  MIC: 0.5 µg/mL (≈ 0.789 µM)
Enterococcus faecium [2]
  MIC: ≤ 0.03 µg/mL
Staphylococcus aureus [14]
  MIC: ≤ 0.03 µg/mL
Escherichia coli
  MIC: 64 µg/mL (≈ 101 µM)
Staphylococcus aureus [15]
  MIC: ≤ 0.03 µg/mL
Staphylococcus simulans
  MIC: 1 µg/mL (≈ 1.58 µM)
Streptococcus pneumoniae [16]
  MIC: ≤ 0.03 µg/mL
Acinetobacter baumannii
  MIC: > 64 µg/mL
Staphylococcus aureus [3]
  MIC: 2 µg/mL (≈ 3.16 µM)
[17]
  MIC: ≤ 0.03 µg/mL
Staphylococcus aureus [18]
  Activity: Tde
Streptococcus pneumoniae [19]
  MIC: 0.06 µg/mL (≈ 0.0947 µM)
Staphylococcus aureus [20]
  MIC: ≤ 0.03 µg/mL
Enterococcus faecalis [21]
  MIC: 0.25 µg/mL (≈ 0.395 µM)
Enterococcus faecalis [22]
  MIC: 0.25 µg/mL (≈ 0.395 µM)
Staphylococcus aureus [23]
  Activity: <4.7 10^-11No_unit
[24]
  metabolised at 1 h, 1 µM: 78.8%
